From paper PMC9090566 (RSC Advances, 2018) come the findings set out here.

The structures appear in SMILES notation.

In general, IC50 refers to the concentration needed to halve the response being measured. A higher IC50 goes with weaker potency.

The target of this assay is T4 polynucleotide kinase (T4 PNK) (Tequatrovirus T4, UniProt P06855). The class given is biochemical.
T4 polynucleotide kinase (T4 PNK), sequence (P06855 whole entry): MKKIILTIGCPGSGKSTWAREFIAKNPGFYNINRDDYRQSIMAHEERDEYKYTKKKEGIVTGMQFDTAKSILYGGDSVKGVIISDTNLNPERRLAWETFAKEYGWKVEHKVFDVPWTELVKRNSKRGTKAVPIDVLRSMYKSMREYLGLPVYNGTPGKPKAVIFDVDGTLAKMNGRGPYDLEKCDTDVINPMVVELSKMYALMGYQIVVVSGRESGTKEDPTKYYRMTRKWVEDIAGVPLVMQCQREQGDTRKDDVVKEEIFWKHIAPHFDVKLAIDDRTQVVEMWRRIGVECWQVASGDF

`O=S(=O)(O)O` [(NH4)2SO4] returned a 50% inhibitory concentration (IC50) of 18 mM. In other words, the millimolar range.
